What was measured:
[1] = target: T1, IRAK-4 (Homo sapiens, UniProt Q9NWZ3); assay: Test for the inhibition of IRAK4 (flashplate, 33P-ATP); assay type: biochemical; settings: enzyme
T1 construct: His6 (N); Dr.Jaekel
T1 sequence (Q9NWZ3 1-460): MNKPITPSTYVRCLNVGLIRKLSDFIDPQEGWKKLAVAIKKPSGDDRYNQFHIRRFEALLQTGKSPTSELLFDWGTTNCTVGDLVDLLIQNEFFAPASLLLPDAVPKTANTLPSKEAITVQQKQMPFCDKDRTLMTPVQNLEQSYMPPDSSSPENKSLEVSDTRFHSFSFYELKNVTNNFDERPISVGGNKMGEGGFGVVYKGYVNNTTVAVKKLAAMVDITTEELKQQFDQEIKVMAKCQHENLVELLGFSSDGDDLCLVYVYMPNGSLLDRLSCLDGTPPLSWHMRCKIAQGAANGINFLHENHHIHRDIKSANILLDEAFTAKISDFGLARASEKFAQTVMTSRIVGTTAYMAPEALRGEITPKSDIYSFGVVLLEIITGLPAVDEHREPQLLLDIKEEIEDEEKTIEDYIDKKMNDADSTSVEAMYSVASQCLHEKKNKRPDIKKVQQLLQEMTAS
Description: (§1) The experimental batches are carried out in a flashplate system with 384 wells/microtitre plate. In each case, the IRAK4 sample His6-IRAK4 (7.3 nM), the biotinylated substrate peptide STK substrate 1-biotin (Cisbio Bioassays, France) (300 nM), 10 μM ATP (with 0.25 μCi of ^33P-ATP/well) and the test substance in 50 μl of conventional experimental solution per well are incubated at 22° C. for 180 min. The test substances are employed in corresponding concentrations (if desired in a dilution series). The control is carried out without test substance. The reaction is stopped using standard methods and washed. The activity of the kinase is measured via the incorporated radioactivity in top count. In order to determine the non-specific kinase reaction (blank value), the experimental batches are carried out in the presence of 1 μM staurosporin. The radioactivity (decompositions per minute) of the blank value (no use of test substance in the presence of 1 μM staurosporin) is subtracted from all other radioactivity values. The controls (kinase activity without test substance) are set equal to 100 percent and all other radioactivity values (after subtracting the blank value) are expressed set in relation thereto (for example in % of the control). IC50 values (50% inhibition) are determined with the aid of statistics programs, such as, for example, RS1.

[2] = target: T2, IRAK-1 (Homo sapiens, UniProt P51617); assay: Test for the inhibition of IRAK1 (autophosphorylation, flashplate); assay type: biochemical; settings: enzyme
T2 construct: His6 (N); Dr.Jaekel Pool B, 232Y08C1.IRK
T2 sequence (P51617 whole entry, species assumed): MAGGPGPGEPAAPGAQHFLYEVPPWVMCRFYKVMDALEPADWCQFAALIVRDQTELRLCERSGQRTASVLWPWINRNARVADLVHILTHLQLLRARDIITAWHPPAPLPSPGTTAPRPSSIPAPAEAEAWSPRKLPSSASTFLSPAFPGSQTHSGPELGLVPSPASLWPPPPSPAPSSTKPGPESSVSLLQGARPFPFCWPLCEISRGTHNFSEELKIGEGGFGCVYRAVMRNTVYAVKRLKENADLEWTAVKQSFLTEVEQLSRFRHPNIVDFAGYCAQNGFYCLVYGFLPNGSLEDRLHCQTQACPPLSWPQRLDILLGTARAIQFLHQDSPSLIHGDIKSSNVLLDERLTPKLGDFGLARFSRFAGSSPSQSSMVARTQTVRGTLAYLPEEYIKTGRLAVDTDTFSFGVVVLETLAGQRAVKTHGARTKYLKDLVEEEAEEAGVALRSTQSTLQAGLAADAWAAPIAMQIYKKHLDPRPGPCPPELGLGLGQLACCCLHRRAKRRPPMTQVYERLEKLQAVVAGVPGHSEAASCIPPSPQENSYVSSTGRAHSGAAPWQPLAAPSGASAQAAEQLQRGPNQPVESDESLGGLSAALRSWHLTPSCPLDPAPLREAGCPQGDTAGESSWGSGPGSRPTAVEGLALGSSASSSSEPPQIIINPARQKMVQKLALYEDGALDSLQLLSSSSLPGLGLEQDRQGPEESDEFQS
Description: as §1, with “case, in order to investigate” for “case,”, “inhibition of the autophosphorylation activity of IRAK1, the IRAK1” for “IRAK4”, “His6-IRAK1 (5.1” for “His6-IRAK4 (7.3”, “1” for “the biotinylated substrate peptide STK substrate 1-biotin (Cisbio Bioassays, France) (300 nM), 10”

[3] = target: T3, PDK1 (Homo sapiens, UniProt O15530); assay: Test for the inhibition of PDK1 (flashplate, 33P-ATP); assay type: biochemical; settings: enzyme
T3 construct: His6 (N)
T3 sequence (O15530 51-556 limits assumed): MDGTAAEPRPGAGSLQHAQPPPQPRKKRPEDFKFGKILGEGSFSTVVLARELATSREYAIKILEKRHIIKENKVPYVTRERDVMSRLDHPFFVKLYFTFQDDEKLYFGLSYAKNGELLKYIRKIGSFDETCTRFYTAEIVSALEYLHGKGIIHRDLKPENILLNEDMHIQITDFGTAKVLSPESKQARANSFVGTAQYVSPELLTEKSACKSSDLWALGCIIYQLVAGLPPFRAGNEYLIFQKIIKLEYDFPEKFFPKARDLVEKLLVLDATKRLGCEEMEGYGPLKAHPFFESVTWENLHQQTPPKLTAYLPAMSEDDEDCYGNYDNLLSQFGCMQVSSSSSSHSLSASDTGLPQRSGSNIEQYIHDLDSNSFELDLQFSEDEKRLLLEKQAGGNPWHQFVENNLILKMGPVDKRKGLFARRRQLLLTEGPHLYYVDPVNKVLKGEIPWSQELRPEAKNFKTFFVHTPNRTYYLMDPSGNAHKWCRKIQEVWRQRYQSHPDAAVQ
Description: The experimental batches are carried out in a flashplate system with 384 wells/microtitration plate.
In each case, the PDK1 sample His6-PDK1(1-50)(3.4 nM), the PDK1 substrate biotin-bA-bA-[…] (400 nM), 4 μM ATP (with 0.2 μCi of ^33P-ATP/well) and the test substance in 50 μl of conventional experimental solution per well are incubated at 30° C. for 60 min. The test substances are employed in corresponding concentrations (if desired in a dilution series). The control is carried out without test substance. The reaction is stopped using standard methods and washed. The activity of the kinase is measured via the incorporated radioactivity in top count. In order to determine the non-specific kinase reaction (blank value), the experimental batches are carried out in the presence of 100 nM staurosporin.
The radioactivity (decompositions per minute) of the blank value (no use of test substance in the presence of staurosporin) is subtracted from all other radioactivity values. The controls (kinase activity without test substance) are set equal to 100 percent and all other radioactivity values (after subtracting the blank value) are expressed set in relation thereto (for example in % of the control).
IC50 values (50% inhibition) are determined with the aid of statistics programmes, such as, for example, RS1.

[4] = target: T4, PDK1 (Homo sapiens, UniProt O15530); assay: IC50 PDK1 (cell); assay type: cell-based
T4 construct: endogenous in cells; host or cells: commercially available colon carcinoma, ovary, prostate or breast cell lines (none named)
T4 sequence (O15530 1-556): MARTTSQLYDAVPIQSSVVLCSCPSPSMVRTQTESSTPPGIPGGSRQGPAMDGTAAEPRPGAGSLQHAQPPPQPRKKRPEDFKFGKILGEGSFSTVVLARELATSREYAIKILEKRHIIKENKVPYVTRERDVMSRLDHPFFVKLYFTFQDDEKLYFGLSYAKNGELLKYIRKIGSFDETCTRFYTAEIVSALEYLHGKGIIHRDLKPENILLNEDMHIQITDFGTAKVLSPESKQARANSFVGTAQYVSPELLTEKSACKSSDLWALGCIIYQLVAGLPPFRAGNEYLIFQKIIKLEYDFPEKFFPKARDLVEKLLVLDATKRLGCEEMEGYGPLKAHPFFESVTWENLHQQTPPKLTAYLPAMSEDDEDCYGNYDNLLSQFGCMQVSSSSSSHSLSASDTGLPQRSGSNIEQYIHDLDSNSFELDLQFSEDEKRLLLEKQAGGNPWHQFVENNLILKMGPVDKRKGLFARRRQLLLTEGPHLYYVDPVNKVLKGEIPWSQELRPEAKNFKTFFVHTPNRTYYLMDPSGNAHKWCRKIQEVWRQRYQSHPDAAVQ
Description: The cells are sown in a suitable cell density in microtitre plates (96-well format) and the test substances are added in the form of a concentration series. After four further days of cultivation in serum-containing medium, the tumour cell proliferation/tumour cell vitality can be determined by means of an Alamar Blue test system. A defined number of cells (for example 2000 cells) per culture/well in a volume of 180 μl of culture medium are sown in microtitre plates (96 well cell-culture plates) using a multichannel pipette. The cells are subsequently cultivated in a CO2 incubator (37° C. and 10% CO2). The test substances are dissolved, for example, in DMSO and subsequently employed in corresponding concentration (if desired in a dilution series) in the cell culture medium. The dilution steps can be adapted depending on the efficiency of the active ingredients and the desired spread of the concentrations. Cell culture medium is added to the test substances in corresponding concentrations. The addition of the test substances to the cells can take place on the same day as the sowing of the cells. To this end, in each case 20 μl of substance solution from the predilution plate are added to the cultures/wells. The cells are cultivated for a further 4 days at 37° Celsius and 10% CO2. In each case, 20 μl of Alamar Blue reagent are added per well, and the microtitre plates are incubated, for example, for a further seven hours in a CO2 incubator (at 37° C. and 10% CO2). The plates are measured in a reader with a fluorescence filter at a wavelength of 540 nm. The plates can be shaken gently immediately before the measurement. The absorbance value of the medium control (no cells and test substances used) is subtracted from all other absorbance values. The controls (cells without test substance) are set equal to 100 percent, and all other absorbance values are set in relation thereto (for example in % of control): Calculation: 100*(value with cells and test substance−value of medium control)/(value with cells−value of medium control) IC50 values (50% inhibition) are determined with the aid of statistics programs, such as, for example, RS1.

| IC50 [1] | IC50 [2] | IC50 [3] | IC50 [4] | SMILES |
| --- | --- | --- | --- | --- |
| 0.1 to 10 µM | 0.1 to 10 µM | 0.001 to 0.1 µM | – | Cn1cc(-c2cnc(N)c(-c3nc4ccc(F)cc4[nH]3)c2)cn1 [Compound A74] |
| – | – | 0.001 to 0.1 µM | > 10 µM | CC1CC(=O)NN=C1c1ccc2[nH]c(-c3cc(-c4cnn(CCN(C)C)c4)cnc3N)nc2c1 (centres unmarked) [Compound A15, 6-(2-{2-Amino-5-[1-(2-dimethylaminoethyl)-1H-pyrazol-4-yl]pyridin-3-yl}-1H-benzimidazol-5-yl)-5-methyl-4,5-dihydro-2H-pyridazin-3-one] |
| – | – | 0.001 to 0.1 µM | > 10 µM | CC1CC(=O)NN=C1c1ccc2[nH]c(-c3cc(-c4cnn(C5CCN(C)CC5)c4)cnc3N)nc2c1 (centres unmarked) [Compound A16] |
| – | – | 0.001 to 0.1 µM | 0.1 to 10 µM | C[C@@H]1CC(=O)NN=C1c1ccc2nc(-c3cc(-c4cnn(C)c4)cnc3N)[nH]c2c1 (single isomer, unassigned) [Compound A2] |
| – | – | 0.001 to 0.1 µM | > 10 µM | Cn1cc(-c2cnc(N)c(-c3nc4ccc(C(O)c5ccccc5)cc4[nH]3)c2)cn1 (centres unmarked) [Compound A80] |
| 0.1 to 10 µM | 0.1 to 10 µM | 0.001 to 0.1 µM | – | Cc1cccc2nc(-c3cc(-c4cnn(C5CCNCC5)c4)cnc3N)[nH]c12 [Compound A89, 3-(7-Methyl-1H-benzimidazol-2-yl)-5-(1-piperidin-4-yl-1H-pyrazol-4-yl)pyridin-2-ylamine] |
| – | – | 0.001 to 0.1 µM | 0.1 to 10 µM | CC1CC(=O)NN=C1c1ccc2[nH]c(-c3cc(-c4cnn(CCN5CCOCC5)c4)cnc3N)nc2c1 (centres unmarked) [Compound A9, 6-(2-{2-amino-5-[1-(2-morpholin-4-ylethyl)-1H-pyrazol-4-yl]-pyridin-3-yl}-1H-benzimidazol-5-yl)-5-methyl-4,5-dihydro-2H-pyridazin-3-one] |
| – | – | 0.001 to 0.1 µM | > 10 µM | COc1ccc2nc(-c3cc(-c4cnn(C5CCN(C)CC5)c4)cnc3N)[nH]c2c1 [Compound A106, 3-(6-Methoxy-1H-benzimidazol-2-yl)-5-[1-(1-methyl-piperidin-4-yl)-1H-pyrazol-4-yl]pyridin-2-ylamine] |
| – | – | 0.001 to 0.1 µM | 0.1 to 10 µM | COCCCn1cc(-c2cnc(N)c(-c3nc4cc(C5=NNC(=O)CC5C)ccc4[nH]3)c2)cn1 (centres unmarked) [Compound A13, 6-(2-{2-Amino-5-[1-(3-methoxypropyl)-1H-pyrazol-4-yl]-pyridin-3-yl}-1H-benzimidazol-5-yl)-5-methyl-4,5-dihydro-2H-pyridazin-3-one] |
| 0.001 to 0.1 µM | 0.001 to 0.1 µM | 0.001 to 0.1 µM | – | COc1cc2[nH]c(-c3cc(-c4cnn(C5CCNCC5)c4)cnc3N)nc2cc1F [Compound A69] |
| 0.1 to 10 µM | 0.001 to 0.1 µM | 0.001 to 0.1 µM | – | COc1cc2nc(-c3cc(-c4cnn(C)c4)cnc3N)[nH]c2cc1F [Compound A78] |
| 0.001 to 0.1 µM | 0.1 to 10 µM | 0.1 to 10 µM | – | COc1cc2[nH]c(-c3cc(-c4cnn(CCN5CCOCC5)c4)cnc3N)nc2cc1F [Compound A148, 3-(5-Fluoro-6-methoxy-1H-benzimidazol-2-yl)-5-[1-(2-morpholin-4-ylethyl)-1H-pyrazol-4-yl]pyridin-2-ylamine] |
| 0.001 to 0.1 µM | 0.1 to 10 µM | – | – | Nc1ncc(-c2cnn(C3CCNCC3)c2)cc1-c1nc2ccccc2[nH]1 [Compound A114, 3-(1H-Benzimidazol-2-yl)-5-(1-piperidin-4-yl-1H-pyrazol-4-yl)pyridin-2-ylamine] |
| 0.1 to 10 µM | 0.1 to 10 µM | – | – | Nc1ccc(-c2cnc(N)c(-c3nc4ccccc4[nH]3)c2)cn1 [Compound A35] |
| 0.1 to 10 µM | 0.1 to 10 µM | – | – | Nc1ncc(-c2cnn(C3CCNCC3)c2)cc1-c1nc2cc(S(N)(=O)=O)ccc2[nH]1 [Compound A62] |

— patent publication US8648201B2, “Aminopyridine derivatives for treating tumors and inflammatory diseases” (MERCK PATENT GmbH, priority 2009, dated 2014)
